Laboratory results published in article PMC9967956, “Efficacy of Trichoderma longibrachiatum Trichogin GA IV Peptaibol analogs against the Black Rot Pathogen Xanthomonas campestris pv. campestris and other Phytopathogenic Bacteria” (Microorganisms, 2023).
Converted amounts (≈) assume the structure as drawn. Where a SMILES comes first, the peptide text is derived from it. [ ]: non-standard residue; d: D form. The star is where a group is joined. Leu(ol) = CC(C)C[C@H](N)CO; Octanoyl = CCCCCCCC(=O)*; nOct = not defined here; Aib = CC(C)(N)C(=O)O

Assays:
[1] = tested on: Xanthomonas campestris pv. campestris strain RC1; assay: Growth inhibition assay against Xcc (OD600); details: LB, 27 °C, 72 h, OD 600 nm, three replicates, two independent experiments
[2] = tested on: Xanthomonas campestris pv. campestris; assay: MIC and MBC determinations against Xcc; assay type: cell-based; parameters: key to Bacteriostatic (MIC) / bactericidal (MBC) activity at 0.5 µM / Bacteriostatic (MIC) / bactericidal (MBC) activity at 1 µM / Bacteriostatic (MIC) / bactericidal (MBC) activity at 3 µM / Bacteriostatic (MIC) / bactericidal (MBC) activity at 2 µM: Dashes (-) indicate the absence of bacteriostatic or bactericidal activity; Minimal Inhibitory Concentration (MIC); Minimal Bactericidal Concentration (MBC); MIC and MBC: Minimal Inhibitory Concentration (MIC) and Minimal Bactericidal Concentration (MBC)
Description: Peptaibols were tested at decreasing concentrations (3, 2, 1 and 0.5 µM). Minimal Bactericidal Concentration (MBC) was determined at the end of the incubation period (72 h) by plating, onto LBA plates, 5 µL samples that were collected from each well with no visible growth.

| Molecule | Inhibition of Xcc growth in vitro ([1]; peptide 3 µM) | Inhibition of Xcc growth in vitro ([1]; peptide 15 µM) | also measured |
| --- | --- | --- | --- |
| CCCCCCCC(=O)NC(C)(C)C(=O)N[C@@H](CCCCN)C(=O)N[C@@H](CC(C)C)C(=O)NC(C)(C)C(=O)N[C@@H](CCCCN)C(=O)N[C@@H](CCCCN)C(=O)N[C@@H](CC(C)C)C(=O)NC(C)(C)C(=O)N[C@@H](CCCCN)C(=O)N[C@H](C(=O)N[C@@H](CC(C)C)C(=O)NC(C)(C)C(=O)N[C@@H](CCCCN)C(=O)N[C@@H](CC(C)C)C(=O)NC(C)(C)C(=O)N[C@@H](CCCCN)C(=O)N[C@@H](CCCCN)C(=O)N[C@@H](CC(C)C)C(=O)NC(C)(C)C(=O)N[C@@H](CCCCN)C(=O)N[C@H](C(=O)N[C@H](CO)CC(C)C)[C@@H](C)CC)[C@@H](C)CC [Peptide 10] (Octanoyl-[Aib]KL[Aib]KKL[Aib]KIL[Aib]KL[Aib]KKL[Aib]KI[Leu(ol)]) | complete inhibition |  | MIC ([2]; lowest concentration that completely inhibited visible growth, 72 h, tested 3, 2, 1 and 0.5 µM): 2 µM (≈ 5.14 µg/mL); Bacteriostatic (MIC) / bactericidal (MBC) activity at 0.5 µM ([2]; peptide 0.5 µM, 72 h growth inhibition, then plating on LBA 24 h): -; Bacteriostatic (MIC) / bactericidal (MBC) activity at 1 µM ([2]; peptide 1 µM, 72 h growth inhibition, then plating on LBA 24 h): - |
| nOct-Aib-Lys-Leu-Aib-Lys-Gly-Leu-Aib-Lys-Ile-Lol [Peptide 5] | did not reduce |  |  |
| nOct-Aib-Gly-Leu-Aib-Gly-Gly-Leu-Aib-Gly-Ile-Lol [Trichogin GA IV, trichogin GA IV] |  | inactive |  |
| nOct-Aib-Gly-Leu-Aib-Lys-Lys-Leu-Leu-NH2 (nOct-[Aib]GL[Aib]KKLL-NH2; reading uncertain) [Peptide 4c1] |  | weakly effective |  |
| nOct-Aib-Gly-Leu-Aib-Gly-Gly-Leu-Api-Ile-Lol [Peptide 8ApiC] | did not reduce |  |  |
| nOct-Aib-Lys-Leu-Aib-Gly-Gly-Leu-Aib-Gly-Ile-Leu-NH2 [Peptide 2r] |  | complete inhibition |  |
| nOct-Aib-Lys-Lys-Leu-Aib-Gly-Ile-Leu-NH2 [Peptide 4c2] |  | no inhibitory effect |  |
| nOct-Aib-Gly-Leu-Aib-Lys-Lys-Leu-Aib-Gly-Ile-Lol [Peptide 4] | did not reduce |  |  |
| nOct-Toac-Gly-Leu-Aib-Gly-Gly-Leu-Aib-Arg-Ile-Lol [Peptide 11] | did not reduce |  |  |
| nOct-Aib-Lys-Leu-Aib-Gly-Lys-Leu-Aib-Gly-Ile-Lol [Peptide 7] | partial growth inhibition effect | completely inhibit |  |
| nOct-Aib-Lys-Leu-Aib-Lys-Gly-Leu-Aib-Gly-Ile-Lol [Peptide 1] | complete inhibition | completely inhibit |  |
| nOct-Aib-Gly-Leu-Aib-Lys-Aib-Leu-Aib-Gly-Ile-Leu-NH2 [Peptide 6r] |  | weakly effective |  |
| nOct-Aib-Gly-Leu-Aib-Gly-Gly-Leu-Api-Gly-Ile-Lol [Peptide 8] | did not reduce |  |  |
| nOct-Aib-Gly-Leu-Aib-Gly-Gly-Leu-Aib-Lys-Ile-Lol [Peptide 25] | did not reduce |  |  |
| nOct-Aib-Gly-Leu-Aib-Gly-Lys-Leu-Aib-Gly-Ile-Leu-NH2 [Peptide 22r] |  | complete inhibition |  |
